Results published in ChEMBL document CHEMBL1201862, “PubChem BioAssay data set” (2004).
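Five compound concentrations were applied to cells in 96-well plates for 48 hours; endpoints were derived by simple linear interpolation of the resulting dose-response curve. Abbreviation: GI50, concentration required for 50% inhibition of growth.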 Calls of active or inactive are those of the source. No stated cut-off is given here; in the data, active = GI50 up to about 1.1 µM and inactive = higher.

Key:
Assay in all cases: NCI anticancer screen, dose series, 48 h
HOP-92 = system: HOP-92
A498 = system: A498
HL-60 = system: HL-60
786-0 = system: 786-0
UACC-62 = system: UACC-62
M14 = system: M14
RXF 393 = system: RXF 393
DU-145 = system: DU-145
UO-31 = system: UO-31
OVCAR-4 = system: OVCAR-4
MDA-MB-231 = system: MDA-MB-231
PC-3 = system: PC-3
TK-10 = system: TK-10
COLO 205 = system: COLO 205
NCI-H23 = system: NCI-H23
BT-549 = system: BT-549
U-251 = system: U-251
OVCAR-8 = system: OVCAR-8
SK-MEL-28 = system: SK-MEL-28
ACHN = system: ACHN

Row | SMILES | GI50 (HOP-92) | GI50 (A498) | GI50 (HL-60) | GI50 (786-0) | GI50 (UACC-62) | GI50 (M14) | GI50 (RXF 393) | GI50 (DU-145) | GI50 (UO-31) | GI50 (OVCAR-4) | GI50 (MDA-MB-231) | GI50 (PC-3) | GI50 (TK-10) | GI50 (COLO 205) | GI50 (NCI-H23) | GI50 (BT-549) | GI50 (U-251) | GI50 (OVCAR-8) | GI50 (SK-MEL-28) | GI50 (ACHN)
1 | CCOC(=O)Nc1ccc(S(=O)(=O)Nc2ccc(Br)cc2)cc1 | 43.7 µM (inactive) | 13.6 µM (inactive) | 25.6 µM (inactive) | 36.8 µM (inactive) | 22.4 µM (inactive) | 49.3 µM (inactive) | 22 µM (inactive) | 65.5 µM (inactive) | 34.8 µM (inactive) | 13.6 µM (inactive) | 29.7 µM (inactive) | 41 µM (inactive) | 43.1 µM (inactive) | 14.6 µM (inactive) | 31 µM (inactive) | 35.1 µM (inactive) | 43 µM (inactive) | 23.3 µM (inactive) | 39.8 µM (inactive) | 30.1 µM (inactive)
2 | CC(C)CC1c2[nH]c3ccccc3c2C[C@H]2C(=O)NC(Cc3c[nH]c4ccccc34)C(=O)N12 (stereo partly specified) | 13.7 µM (inactive) | 16.8 µM (inactive) | 11.8 µM (inactive) | 17.5 µM (inactive) | 16 µM (inactive) | 14.1 µM (inactive) | 7.87 µM (inactive) | 20.3 µM (inactive) | 14.3 µM (inactive) | 15.8 µM (inactive) | 20.3 µM (inactive) | 11.1 µM (inactive) | 4.93 µM (inactive) | 17.8 µM (inactive) | 17.7 µM (inactive) | 16.9 µM (inactive) | 12.2 µM (inactive) | 15.9 µM (inactive) | 17.3 µM (inactive) | 17.8 µM (inactive)
3 | Brc1ccc(-c2cn3ccncc3n2)cc1 | > 100 µM (inactive) | > 100 µM (inactive) | – | > 100 µM (inactive) | > 100 µM (inactive) | > 100 µM (inactive) | > 100 µM (inactive) | > 100 µM (inactive) | > 100 µM (inactive) | > 100 µM (inactive) | > 100 µM (inactive) | > 100 µM (inactive) | > 100 µM (inactive) | > 100 µM (inactive) | > 100 µM (inactive) | > 100 µM (inactive) | > 100 µM (inactive) | > 100 µM (inactive) | > 100 µM (inactive) | > 100 µM (inactive)
4 | BrC1(c2ccccc2)C[n+]2c(-c3ccccc3)cc(-c3ccccc3)cc2-c2ccccc21 (stereo unspecified) | 0.664 µM (active) | 1.81 µM (inactive) | 0.168 µM (active) | 0.661 µM (active) | – | 0.499 µM (active) | 0.183 µM (active) | 0.931 µM (active) | 1.35 µM (inactive) | 0.977 µM (active) | 0.336 µM (active) | 0.346 µM (active) | 1.73 µM (inactive) | 0.157 µM (active) | 1 µM (active) | 0.407 µM (active) | 0.226 µM (active) | 0.36 µM (active) | 0.92 µM (active) | 1.42 µM (inactive)
5 | O=C1CC(=O)NC(NN2C(=O)/C(=C/c3ccc(Cl)cc3)N=C2c2ccccc2)=N1 | 12.4 µM (inactive) | 16.9 µM (inactive) | – | 17 µM (inactive) | 12.5 µM (inactive) | 14.5 µM (inactive) | 14.1 µM (inactive) | 30.1 µM (inactive) | 16.3 µM (inactive) | 5.64 µM (inactive) | 17.9 µM (inactive) | 14 µM (inactive) | 16.5 µM (inactive) | 16.8 µM (inactive) | 16 µM (inactive) | 15.8 µM (inactive) | 15.6 µM (inactive) | 14.5 µM (inactive) | 19.1 µM (inactive) | 17.4 µM (inactive)
6 | O=C1c2ccccc2C(=O)N1n1c(Cc2ccccc2)n[nH]c1=O | > 100 µM (inactive) | > 100 µM (inactive) | – | > 100 µM (inactive) | > 100 µM (inactive) | > 100 µM (inactive) | – | > 100 µM (inactive) | > 100 µM (inactive) | > 100 µM (inactive) | > 100 µM (inactive) | > 100 µM (inactive) | > 100 µM (inactive) | > 100 µM (inactive) | > 100 µM (inactive) | > 100 µM (inactive) | > 100 µM (inactive) | > 100 µM (inactive) | > 100 µM (inactive) | > 100 µM (inactive)
7 | CSc1ncc2c(n1)-c1ccccc1OC2N1CCOCC1 (stereo unspecified) | 41.9 µM (inactive) | 21.3 µM (inactive) | 27.3 µM (inactive) | 75.7 µM (inactive) | 28.1 µM (inactive) | > 100 µM (inactive) | 53.8 µM (inactive) | > 100 µM (inactive) | 42.4 µM (inactive) | 21.7 µM (inactive) | 83.9 µM (inactive) | 31.6 µM (inactive) | 43.3 µM (inactive) | > 100 µM (inactive) | > 100 µM (inactive) | 49.5 µM (inactive) | > 100 µM (inactive) | > 100 µM (inactive) | – | 80.9 µM (inactive)
8 | CC(=O)O[C@H]1CC[C@@]2(C)C(=C[C@H](c3ccc(O)cc3)[C@H]3[C@@H]4CC[C@H](OC(C)=O)[C@@]4(C)CC[C@@H]32)C1 | 34.4 µM (inactive) | 0.51 µM (active) | 19.6 µM (inactive) | 19.6 µM (inactive) | 10.4 µM (inactive) | 19 µM (inactive) | 22.5 µM (inactive) | 20.7 µM (inactive) | 25.2 µM (inactive) | 15.4 µM (inactive) | 17.9 µM (inactive) | 14.3 µM (inactive) | 32.3 µM (inactive) | 19.2 µM (inactive) | 19.8 µM (inactive) | 14.2 µM (inactive) | 22.1 µM (inactive) | 16.9 µM (inactive) | – | 22.6 µM (inactive)
9 | CC1=C[C@@H](C)C[C@]2(C)CC[C@H](O2)[C@]23CC[C@](C)(C[C@H](O2)[C@@H]2O[C@@](C)(CC2=O)[C@@H](O)[C@H]2CC[C@@]4(CCC[C@@H](O4)[C@H](C)C(=O)O[C@H]4C[C@H]([C@]5(O)OCC[C@H](C)[C@@H]5O)O[C@H]4C=C1)O2)O3 | 0.00159 µM (active) | 0.00147 µM (active) | 0.0346 µM (active) | 0.0027 µM (active) | 0.00461 µM (active) | 0.00527 µM (active) | 0.00146 µM (active) | 0.0601 µM (active) | 0.00408 µM (active) | 0.00344 µM (active) | 0.00528 µM (active) | 0.00229 µM (active) | 0.00545 µM (active) | 0.00127 µM (active) | 0.0118 µM (active) | 0.0024 µM (active) | 0.0146 µM (active) | – | 0.00173 µM (active) | 0.00473 µM (active)
10 | Nc1ccc(-c2nc3cc(F)ccc3s2)cc1CO | 17.3 µM (inactive) | 0.0102 µM (active) | > 76.9 µM (inactive) | 30.9 µM (inactive) | 19.4 µM (inactive) | > 49.5 µM (inactive) | 15.5 µM (inactive) | > 78.9 µM (inactive) | 18.1 µM (inactive) | > 100 µM (inactive) | 22.9 µM (inactive) | 29.8 µM (inactive) | – | > 100 µM (inactive) | 0.436 µM (active) | 21.2 µM (inactive) | 16.4 µM (inactive) | 28.6 µM (inactive) | > 100 µM (inactive) | 25.3 µM (inactive)
11 | CCOC1CN=C(Nc2cccc3ccccc23)S1 (stereo unspecified) | > 10 µM (inactive) | > 10 µM (inactive) | > 10 µM (inactive) | > 10 µM (inactive) | > 10 µM (inactive) | > 10 µM (inactive) | > 10 µM (inactive) | > 10 µM (inactive) | – | > 10 µM (inactive) | > 10 µM (inactive) | > 10 µM (inactive) | > 10 µM (inactive) | > 10 µM (inactive) | > 10 µM (inactive) | > 10 µM (inactive) | > 10 µM (inactive) | > 10 µM (inactive) | > 10 µM (inactive) | > 10 µM (inactive)
12 | CC1(C=O)CCC23COC4(CCC5C6(C)CCC(OC7OCC(OC8OC(CO)C(O)C(OC9OC(CO)C(O)C(O)C9O)C8OC8OCC(O)C(O)C8O)C(O)C7OC7OC(CO)C(O)C(O)C7O)C(C)(C)C6CCC5(C)C4(C)CC2O)C3C1 (stereo unspecified) | 0.381 µM (active) | 0.552 µM (active) | 0.356 µM (active) | 1.2 µM (inactive) | 1.71 µM (inactive) | 1.52 µM (inactive) | – | 1.46 µM (inactive) | 1.48 µM (inactive) | 1.16 µM (inactive) | 0.32 µM (active) | 1.38 µM (inactive) | 1.89 µM (inactive) | 1.3 µM (inactive) | 1.76 µM (inactive) | 1.57 µM (inactive) | 2.34 µM (inactive) | 0.365 µM (active) | – | 1.3 µM (inactive)
13 | C/C(=N\NC(=S)N1CCCCC1)c1nc2cccnc2[nH]1 | 7.48 µM (inactive) | 17.2 µM (inactive) | 3.35 µM (inactive) | 18 µM (inactive) | 13.7 µM (inactive) | 7.46 µM (inactive) | – | 14.7 µM (inactive) | 4.24 µM (inactive) | 4.24 µM (inactive) | 3.81 µM (inactive) | 5.3 µM (inactive) | 21.3 µM (inactive) | 4.51 µM (inactive) | 13.6 µM (inactive) | 4.3 µM (inactive) | 9.46 µM (inactive) | 4.19 µM (inactive) | 16 µM (inactive) | 3.95 µM (inactive)
14 | CC(=O)O[C@H]1CC[C@@]2(C)[C@@H](CC[C@@H]3[C@@H]2CC(=O)[C@@]2(C)[C@H]3C[C@@H]3CC(C)=CC(=O)[C@@H]32)C1 | – | > 100 µM (inactive) | 5.04 µM (inactive) | 39.5 µM (inactive) | 64.7 µM (inactive) | 29.7 µM (inactive) | 30.2 µM (inactive) | 53.8 µM (inactive) | 23.2 µM (inactive) | 56.5 µM (inactive) | > 100 µM (inactive) | 44.1 µM (inactive) | > 100 µM (inactive) | 58.5 µM (inactive) | > 100 µM (inactive) | 28.3 µM (inactive) | > 100 µM (inactive) | 59.7 µM (inactive) | > 100 µM (inactive) | 66.7 µM (inactive)
